Assay results taken from PubChem BioAssay AID1671268.

Target: Receptor-type tyrosine-protein kinase FLT3 (Homo sapiens) (UniProt P36888)
Assay: inhibition of human FLT3 receptor tyrosine kinase – biochemical, Z'-LYTE, FRET, protease-coupled, direct format, dose response (AID 1671268)
Settings: recombinant FLT3, Z'-LYTE FRET peptide phosphorylation

Receptor-type tyrosine-protein kinase FLT3 (Homo sapiens), sequence (P36888 whole entry, looked up): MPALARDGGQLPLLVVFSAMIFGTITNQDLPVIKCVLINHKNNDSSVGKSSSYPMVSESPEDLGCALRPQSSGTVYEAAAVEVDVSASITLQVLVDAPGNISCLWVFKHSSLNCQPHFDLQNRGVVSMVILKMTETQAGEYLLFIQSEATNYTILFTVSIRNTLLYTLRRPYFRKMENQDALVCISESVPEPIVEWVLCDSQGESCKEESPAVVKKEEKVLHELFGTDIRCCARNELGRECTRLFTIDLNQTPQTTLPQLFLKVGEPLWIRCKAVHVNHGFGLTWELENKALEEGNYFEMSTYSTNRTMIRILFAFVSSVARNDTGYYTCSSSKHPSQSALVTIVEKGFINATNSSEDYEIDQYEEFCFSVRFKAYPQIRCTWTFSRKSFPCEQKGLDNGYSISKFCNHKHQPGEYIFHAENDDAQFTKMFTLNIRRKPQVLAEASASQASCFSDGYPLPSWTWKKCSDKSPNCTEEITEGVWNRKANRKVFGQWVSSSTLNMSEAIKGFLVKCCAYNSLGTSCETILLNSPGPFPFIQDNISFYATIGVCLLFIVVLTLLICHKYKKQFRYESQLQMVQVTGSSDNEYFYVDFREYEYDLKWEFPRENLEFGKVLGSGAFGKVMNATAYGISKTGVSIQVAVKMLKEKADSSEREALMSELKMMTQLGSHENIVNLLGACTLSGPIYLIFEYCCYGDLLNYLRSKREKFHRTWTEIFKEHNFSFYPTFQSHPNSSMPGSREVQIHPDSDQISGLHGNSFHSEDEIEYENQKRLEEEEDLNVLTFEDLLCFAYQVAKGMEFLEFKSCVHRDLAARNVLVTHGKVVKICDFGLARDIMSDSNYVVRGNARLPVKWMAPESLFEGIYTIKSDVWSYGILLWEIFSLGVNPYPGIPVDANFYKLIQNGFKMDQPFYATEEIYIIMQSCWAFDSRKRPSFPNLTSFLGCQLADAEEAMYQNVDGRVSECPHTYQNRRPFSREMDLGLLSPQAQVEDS

COc1cc2ncnc(Nc3cccc(Cl)c3)c2cc1OC
IC50: 2940 nM
